Reference: patent publication US20260357266A1, “COMPOSITION FOR KILLING A THERAPY-INDUCED SENESCENCE (TIS) CELLS AND USES THEREOF” (AJOU UNIVERSITY INDUSTRY-ACADEMIC COOPERATION FOUNDATION, priority 2022, published 2026)

What was measured:
[1] = test system: PIM-1 kinase; assay: PIM-1 kinase mRNA/protein expression after therapy-induced senescence; type: cell-based; conditions: 10 μM cisplatin; MCF7, MDA-MB 231, MKN1, HSC4, SNU869
Source text: In addition to breast cancer cell lines (MCF7 and MDA-MB231), gastric cancer (SNU601, MKN1, and MKN74), colon cancer (SW480, and Hct116), head and neck cancer (HSC4), cervical cancer (HeLa S3), cholangiocarcinoma (SNU308, SNU478, and SNU1196), pancreatic adenocarcinoma (BxPC3), and prostate cancer (PC3) cell lines were induced to senescence by treatment in the same manner as in Example 1, thereby obtaining therapy-induced senescent cells.
(§1) In addition, in order to examine whether therapy-induced senescence (TIS) occurs even when using anticancer agents other than adriamycin, various cancer cell lines (MCF7, MDA-MB 231, MKN1, HSC4, and SNU869) were treated with 10 μM of cisplatin (Selleckhem, Catalog No. S1166 CAS 15663-27-1).

[2] = test system: various cancer cell lines (MCF7, MDA-MB 231, MKN1, HSC4, and SNU869); assay: Therapy-induced senescence by cisplatin in various cancer cell lines; type: cell-based; conditions: 10 μM cisplatin; MCF7, MDA-MB 231, MKN1, HSC4, SNU869
Method: as §1

[3] = test system: MCF7 control cells and TIS cells; assay: CCK8 assay and microscopy, senolytic effect on control and therapy-induced senescent (TIS) MCF7 cells; type: cell-based; conditions: for cell viability, TIS group compared to control group: CCK8, MCF7, FIG. 3b
Method: FIGS. 3d and 3e show the results of CCK8 assay and microscopy performed to evaluate the cell killing effect of SGI-1776 after treating MCF7 cells (Ctrl and TIS) with another PIM1 kinase inhibitor, SGI-1776 (Selleckhem, Catalog No. S2198, CAS 1025065-69-3).
Therapy-induced senescent breast cancer cells were treated with the FDA-approved inhibitors (Table 1) for the 23 genes finally selected in Example 2, the senescent cell-selective cell division inhibitory effect and senolytic effect of the drugs were evaluated by CCK8 assay (D-Plus CCK, cell viability assay kit, Cat CCK-3000, Dong-In LS) (FIG. 3A). In this case, for the control group (cancer cells without therapy-induced senescence), the measurement was made after treatment with the inhibitor at the indicated concentration for 48 hours, and for the therapy-induced senescent cell group, the cancer cells were induced to senescence by treatment with adriamycin for 48 hours as described in Example 1, and then treated with the indicator at the indicated concentration for 48 hours while replacing the culture medium, the inhibitor was treated at the indicated concentration for 48 hours, and then the measurement was made.

[4] = test system: SNU601, HSC4, and SW480 cells (control and TIS); assay: CCK8 assay and microscopy, senolytic effect on control and TIS gastric, head and neck and colon cancer cells; type: cell-based; conditions: FIG. 5
Method: FIGS. 5a and 5b show the results of microscopy and CCK8 assay performed to evaluate the cell killing effect of PIM 1/2 inhibitor VI on control (Ctrl) cells and therapy-induced senescent (TIS) cells after treating cancer cell lines (HSC4: head and neck cancer, SNU601: gastric cancer, and SW480: colon cancer) with PIM 1/2 inhibitor VI.
Therapy-induced senescent breast cancer cells were treated with the FDA-approved inhibitors (Table 1) for the 23 genes finally selected in Example 2, the senescent cell-selective cell division inhibitory effect and senolytic effect of the drugs were evaluated by CCK8 assay (D-Plus CCK, cell viability assay kit, Cat CCK-3000, Dong-In LS) (FIG. 3A). […]
In order to evaluate the senolytic effect of a Pim-1 kinase inhibitor on gastric cancer (SNU601), head and neck cancer (HSC4), and colon cancer (SW480) cell lines induced to senescence by treatment, the concentration-dependent senolytic effect of the Pim-1 kinase inhibitor was evaluated in the same manner as described in Example 3.

[5] = test system: breast cancer cell lines (MCF7, ZR75-1, Hs578T, and MDA-MB-231); assay: Cell size and SA-β-gal staining after therapy-induced senescence by adriamycin; type: cell-based; conditions: 100 nM adriamycin for 48 h, then medium replaced and cultured 5 to 7 days
Method: (§2) To generate therapy-induced senescent tumor cells, breast cancer cell lines with contrasting characteristics (MCF7 and ZR75-1, which are female hormone receptor-positive but relatively less malignant, and Hs578T and MDA-MB-231, which are hormone receptor- and HER2 receptor-negative triple-negative breast cancer cell lines and are relatively more aggressive) were each treated with 100 nM of adriamycin (Selleckhem, Catalog No. S1208, CAS 25316-40-9). After 48 hours, the cell culture medium was replaced and the cells were cultured for 5 to 7 days, thereby generating therapy-induced senescent tumor cells.

[6] = test system: p21; assay: p21 mRNA expression after therapy-induced senescence by adriamycin; type: cell-based; conditions: 100 nM adriamycin for 48 h, then medium replaced and cultured 5 to 7 days; MCF7, ZR75-1, Hs578T, MDA-MB-231
Method: as §2

[7] = test system: senescent cell types, including senescent cancer cells; conditions: literature (Aging Cell 15, 428-435 (2016); Nat. Med. 22, 78-83 (2016)); cited from earlier work

## N.N.[Cl][Pt][Cl] [cisplatin]
[1]
  mRNA expression of the PIM-1 kinase gene: significantly increased
[2]
  occurrence of therapy-induced senescence (TIS): therapy-induced senescence (TIS) occurred

## CN1CCC(CNc2ccc3ncc(-c4cccc(OC(F)(F)F)c4)n3n2)CC1 [SGI-1776]
[3]; FIG. 3D, MCF7
  cytotoxicity to TIS cells compared to control cells: high cytotoxicity to the TIS cells compared to the control cells

## CCCOc1ccc(/C=C2\SC(=O)NC2=O)cc1 [PIM1/2 kinase inhibitor VI]
[3]
  cell viability, TIS group compared to control group: significantly inhibited in a therapy-induced senescent cell group compared to a control group
[3]; CCK8, inhibitor 48 h, TIS by adriamycin vs control, FIG. 3A
  selective senolytic effect on therapy-induced senescent tumor cells: exhibited a selective senolytic effect on the therapy-induced senescent tumor cells
[3]; FIGS. 3B and 3C, TIS cells
  killing effect on TIS cells: effectively killed the TIS cells
[3]; FIGS. 3B and 3C, control cells, high concentrations
  cell growth and killing of control cells: inhibited cell growth in the control cells at high concentrations but hardly killed the control cells
[3]; FIGS. 3B and 3C, versus ABT-263
  senolytic effect on senescent cells compared with ABT-263: significantly superior to that of ABT-263
[3]; summary statement, tumor cells induced to senescence by a chemotherapeutic agent
  killing effect on therapy-induced senescent tumor cells compared to normal tumor cells: a significant killing effect was observed on the therapy-induced senescent tumor cells compared to normal tumor cells
[4]; SNU601, HSC4, SW480 TIS cells
  killing effect on therapy-induced senescent cancer cells: significant killing effect on the therapy-induced senescent cancer cells
[4]; SNU601, HSC4, SW480 control cells
  killing effect on control cells: no significant killing effect on the control cells

## COc1cccc2c1C(=O)c1c(O)c3c(c(O)c1C2=O)C[C@@](O)(C(=O)CO)C[C@@H]3O[C@H]1C[C@H](N)[C@H](O)[C@H](C)O1 [adriamycin]
[5]
  cell size: the cell size of each breast cancer cell line increased
  number of cells positive to SA-b-gal: the number of cells positive to SA-b-gal, a senescence marker, increased
[6]
  mRNA expression of p21: increase significantly in each cell line

## CC1(C)CCC(c2ccc(Cl)cc2)=C(CN2CCN(c3ccc(C(=O)NS(=O)(=O)c4ccc(N[C@H](CCN5CCOCC5)CSc5ccccc5)c(S(=O)(=O)C(F)(F)F)c4)cc3)CC2)C1 [ABT-263]
[3]
  cell viability, TIS group compared to control group: significantly inhibited in a therapy-induced senescent cell group compared to a control group
[3]; FIGS. 3B and 3C
  killing effect on both control and TIS cells: almost complete killing effect on both the control and TIS cells
[3]; FIGS. 3B and 3C, difference between control and TIS cells
  killing effect, control vs TIS cells: significant difference between the killing effect on the control cell and the killing effect on the TIS cells
[7]
  elimination of senescent cell types: able to effectively eliminate a wide range of senescent cell types, including senescent cancer cells
